# Measurements taken from paper PMC3626286 (Chemical research in toxicology, 2013).
# Several values for one entry are separate records, joined by “and”; a condition that tells them apart may be missing. Identical values can stand only once. Entries after “also recorded” stand apart in the source; their conditions may differ. Like-named read-outs stand apart in the source and are kept apart here.
# Key:
# [1] = cited from earlier work
# rat hepatocytes [2] = conditions: cited from earlier work
# [3] = Chemical stability in 0.1 M potassium phosphate buffer; assay type: physicochemical; conditions: for duration of incubation with no detectable hydrolysis: 1 μM, 0.1 M potassium phosphate buffer pH 7.4, 37°C, data not shown; for chemical stability over the 24 h incubation (in words): buffer, physiological conditions
# [4] = system: equine liver glutathione-S-transferase (GST); conditions: 1 μM, GSH 10 mM, equine liver GST 30 units/ml, pH 7.4, 37°C
# rat hepatocytes [5] = assay type: in vitro ADME; conditions: for fold decrease in concentration on ice versus 37°C: 0°C versus 37°C; for concentration formed at 60 min / fold decrease in concentration on ice versus 37°C: 60 min
# [6] = Chemical reactivity with GSH in buffer in the absence of GST; assay type: physicochemical; conditions: 1 μM, GSH 10 mM, 0.1 M potassium phosphate buffer pH 7.4, 37°C, without GST
# equine liver GST = conditions: after 30 min incubation; cited from earlier work
# rat hepatocytes [7] = conditions: cited from earlier work; remark: listed apart in the source
# rat hepatocytes [8] = conditions: complete inhibition of acyl glucuronidation; cited from earlier work
# [9] = inhibitor 1 mM co-incubated with MFA
# [10] = MFA 100 μM, rat hepatocytes, 37°C
# [11] = in vitro in physiological buffer
smiles,measurement,setting,value
CC(C)(COP(=O)(O)OP(=O)(O)OC[C@H]1O[C@@H](n2cnc3c(N)ncnc32)[C@H](O)[C@@H]1OP(=O)(O)O)[C@@H](O)C(=O)NCCC(=O)NCCSC(=O)Cc1ccccc1 [phenylacetyl-S-acyl-CoA],stability after one day of incubation (in words),[1],completely stable
CC1(C)[C@H]2CC[C@]1(C)[C@H](O)C2 [(−)-borneol],decrease in MFA-1-O-G formation,"rat hepatocytes [2]; inhibitor 1 mM co-incubated with MFA (10 μM, 10 min)",91%
same,inhibition of MFA-GSH formation,rat hepatocytes [2]; [9],no inhibition
"Cc1cccc(Nc2ccccc2C(=O)OP(=O)(O)OC[C@H]2O[C@@H](n3cnc4c(N)ncnc43)[C@H](O)[C@@H]2O)c1C [MFA-AMP, mefenamic acid-acyl-adenylate]",duration of incubation with no detectable hydrolysis,[3],at least 24 h
same,chemical stability over the 24 h incubation (in words),[3],chemically stable
same,reactivity towards GSH (rate of MFA-GSH formation) in the presence of GST,[4],1.25±0.28 nM MFA-GSH/min
same,fold lower concentration than MFA-GSH,rat hepatocytes [5]; [10],19 fold
same,maximum concentration formed,rat hepatocytes [5]; [10],90.2 nM
same,time of maximum concentration,rat hepatocytes [5]; [10],20 sec and ~ 20 sec
same,concentration at which formation levelled off,rat hepatocytes [5]; rat hepatocytes on ice (0°C),94.1 nM
same,time to maximum concentration,rat hepatocytes [5]; rat hepatocytes on ice (0°C),1 min
same,transacylation of GSH (rate of MFA-GSH formation),[6],0.21±0.02 nM MFA-GSH/min
CC(C)(Oc1ccc(Cl)cc1)C(=O)SCCNC(=O)CCNC(=O)C(O)C(C)(C)COP(=O)(O)OP(=O)(O)OCC1OC(n2cnc3c(N)ncnc32)C(O)C1OP(=O)(O)O (centres unmarked) [clofibric acid-S-acyl-CoA],degradation half life,[1]; [11],504 h
same,hydrolysis per day,[1]; [11],~ 2 % hydrolysis/day
"Cc1cccc(Nc2ccccc2C(=O)SCCNC(=O)CCNC(=O)[C@H](O)C(C)(C)COP(=O)(O)OP(=O)(O)OC[C@H]2O[C@@H](n3cnc4c(N)ncnc43)[C@H](O)[C@@H]2OP(=O)(O)O)c1C [MFA-CoA, mefenamic acid-S-acyl-Coenzyme A]",duration of incubation with no detectable hydrolysis,[3],at least 24 h
same,reactivity towards GSH (rate of MFA-GSH formation) in the presence of GST,[4],3.38±0.04 nM MFA-GSH/min
same,fold lower concentration than MFA-GSH,rat hepatocytes [5]; [10],37 fold
same,time point until which undetectable,rat hepatocytes [5]; [10],4 min
same,concentration formed at 60 min,rat hepatocytes [5]; [10],45.6 nM
same,time point until which undetectable,rat hepatocytes [5]; rat hepatocytes on ice (0°C),20 min and 10 min
same,concentration formed at 60 min,rat hepatocytes [5]; rat hepatocytes on ice (0°C),14.1 nM
same,fold decrease in concentration on ice versus 37°C,rat hepatocytes [5]; rat hepatocytes,3.2 fold
same,transacylation of GSH (rate of MFA-GSH formation),[6],2.38±0.64 nM MFA-GSH/min
"Cc1cccc(Nc2ccccc2C(=O)SC[C@H](NC(=O)CC[C@H](N)C(=O)O)C(=O)NCC(=O)O)c1C [MFA-GSH, mefenamic acid-S-acyl-glutathione]",duration of incubation with no detectable hydrolysis,[3],at least 24 h
same,chemical stability over the 24 h incubation (in words),[3],stable
same,degradation in the presence of equine liver GST,equine liver GST,10–11%
same,concentration formed at 60 min,rat hepatocytes [5]; [10],1700 nM
same,concentration formed at 60 min,rat hepatocytes [5]; rat hepatocytes on ice (0°C),83.9 nM
same,fold decrease in concentration on ice versus 37°C,rat hepatocytes [5]; rat hepatocytes,20 fold
same,metabolic half life,rat hepatocytes [7],~ 8 min
CC(C(=O)O)c1ccccc1 (centres unmarked) [2-phenylpropionic acid],decrease in covalent adduct formation,rat hepatocytes [8],18.7%
CCCCCCCCCCCC(=O)O [lauric acid],inhibition of MFA-CoA formation,rat hepatocytes [2]; [9],58%
same,inhibition of MFA-GSH formation,rat hepatocytes [2]; [9],66%
C[C@H](C(=O)O[C@@H]1O[C@H](C(=O)O)[C@@H](O)[C@H](O)[C@H]1O)c1ccccc1 [(S)-2-phenylpropionic-1-β-O-acyl glucuronide],half-life of degradation (t1/2),[1],2.4 h
"Cc1cccc(Nc2ccccc2C(=O)O[C@@H]2O[C@H](C(=O)O)[C@@H](O)[C@H](O)[C@H]2O)c1C [MFA-1-O-G, mefenamic acid-1-O-acyl-glucuronide, reference compound]",half life of degradation,[1]; buffer under physiological conditions,~ 16 h
same,half life of degradation,"[1]; previously reported, also confirmed in the authors' laboratory",16.5 h
same,reactivity towards GSH (rate of MFA-GSH formation) in the presence of GST,[4],0.07±0.01 nM MFA-GSH/min
same,concentration formed at 60 min,rat hepatocytes [5]; [10],42200 nM
same,formation on ice (in words),rat hepatocytes [5]; rat hepatocytes on ice (0°C),nearly undetectable; also recorded: no MFA-1-O-G formation
same,transacylation of GSH (rate of MFA-GSH formation),[6],0.02±0.02 nM MFA-GSH/min
Cc1cc(CC(=O)O[C@@H]2O[C@H](C(=O)O)[C@@H](O)[C@H](O)[C@H]2O)n(C)c1C(=O)c1ccc(Cl)cc1 [zomepirac-1-β-O-acyl glucuronide],half-life of degradation (t1/2),[1],0.45 h
